# Legend:
# [1] = tested on: urinary incontinence (UI) episodes; assay: clinical trial of oral sildenafil in women: UI episodes and side effects; format: in vivo
# Excerpt: In view of this, the inventors determined to develop a way to administer sildenafil directly to the muscles and structures of the pelvic floor using an intravaginal apparatus. Disclosed in the discussion that follows are example embodiments of intravaginal apparatuses that can be used for treating urinary incontinence.
# [2] = clinical trial pharmacokinetics: plasma and cervicovaginal (CVF) secretion drug concentrations after oral sildenafil; format: in vivo; settings: women, oral 20 mg 3 times a day for a month
# Method: A series of pharmacokinetic and safety studies were conducted in both women and sheep.
smiles,measurement,setting,value
CCCc1nn(C)c2c(=O)[nH]c(-c3cc(S(=O)(=O)N4CCN(C)CC4)ccc3OCC)nc12 [sildenafil],side effects,[1]; women taking oral sildenafil,"flushing, visual changes, and gastrointestinal changes"
same,number of UI episodes per day,[1]; women taking oral sildenafil (20 mg 3 times a day for a month),decrease
same,dependence of CVF secretion drug concentrations on plasma drug concentrations,[2],not dependent on the plasma drug concentrations
same,CVF secretion drug concentrations compared with plasma drug concentrations,[2]; later timepoints after the last oral dose,higher than the plasma drug concentrations

# — patent publication US20250332392A1, “APPARATUSES AND METHODS FOR TREATMENT OF FEMALE URINARY INCONTINENCE” (THE BOARD OF REGENTS OF THE UNIVERSITY OF TEXAS SYSTEM, priority 2022, published 2025)
